According to ChEMBL document CHEMBL4130462, “Natural isoflavone biochanin A as a template for the design of new and potent 3-phenylquinolone efflux inhibitors against Mycobacterium avium” (Eur J Med Chem, 2017):
≈ marks a conversion by molar mass, not a printed value.

Columns and labels:
Mycobacterium avium [1] = conditions: 104 mc'2 3
[2] = Safety index, ratio of MTC for test compound to MTC for thioridazine for cytotoxicity in human monocyte-derived macrophages; format: cell-based, Macrophage cell line
Mycobacterium avium [3] = conditions: 104 mc'2 3; remark: listed apart in the source
Mycobacterium avium [4] = conditions: isolate MAV1
Mycobacterium avium [5] = conditions: isolate MAV2
Mycobacterium avium [6] = conditions: 104 mc'2 4
Mycobacterium avium [7] = conditions: isolate MAV1; remark: listed apart in the source
Description: Inhibition of multidrug resistance efflux pump in Mycobacterium avium isolate MAV1 assessed as potentiation of ciprofloxacin-induced antibacterial activity by measuring ciprofloxacin MIC at 1/4 MIC incubated for 3 days by MTT assay

Mycobacterium avium [8] = conditions: 104 mc'2 4; remark: listed apart in the source
Mycobacterium avium [9] = conditions: 104
Mycobacterium avium [10] = conditions: isolate MAV2; remark: listed apart in the source
Mycobacterium avium [11] = conditions: 104; remark: listed apart in the source
Mycobacterium avium [12] = conditions: 104 mc'2 4; remark: listed apart in the source
Mycobacterium avium [13] = conditions: 104; remark: listed apart in the source
Description: Inhibition of multidrug resistance efflux pump in Mycobacterium avium 104 assessed as potentiation of clarithromycin -induced antibacterial activity by measuring clarithromycin MIC at 1/4 MIC incubated for 3 days by MTT assay

Mycobacterium avium [14] = conditions: 104 mc'2 3; remark: listed apart in the source
[15] = Safety index, ratio of CC50 for test compound to CC50 for chlorpromazine for cytotoxicity in human monocyte-derived macrophages; format: cell-based, Macrophage cell line
Mycobacterium avium [16] = conditions: 104; remark: listed apart in the source
Description: Inhibition of multidrug resistance efflux pump in Mycobacterium avium 104 assessed as potentiation of clarithromycin -induced antibacterial activity by measuring clarithromycin MIC at 1/2 MIC incubated for 3 days by MTT assay

Mycobacterium avium [17] = conditions: 104; remark: listed apart in the source
Mycobacterium avium [18] = conditions: isolate MAV4
Mycobacterium avium [19] = conditions: isolate MAV2; remark: listed apart in the source
Mycobacterium avium [20] = experiment: Antimycobacterial activity against Mycobacterium avium isolate MAV3 assessed as reduction in bacterial viability incubated for 3 days by MTT assay; format: organism-based; conditions: 72 h
Mycobacterium avium [21] = conditions: in vivo, 72 h
Description: Antimycobacterial activity against Mycobacterium avium 104 mc'2 3 assessed as reduction in bacterial viability incubated for 3 days by MTT assay

Mycobacterium avium [22] = conditions: 104 mc'2 4; remark: listed apart in the source
Mycobacterium avium [23] = conditions: isolate MAV1; remark: listed apart in the source
Description: Inhibition of multidrug resistance efflux pump in Mycobacterium avium isolate MAV1 assessed as potentiation of ofloxacin-induced antibacterial activity by measuring ofloxacin MIC at 1/2 MIC incubated for 3 days by MTT assay (Rvb = 4 ug/ml)

[24] = system: Mycobacterium avium subsp. avium ATCC 25291
Description: Inhibition of multidrug resistance efflux pump in Mycobacterium avium ATCC 25291 assessed as potentiation of clarithromycin -induced antibacterial activity by measuring clarithromycin MIC at 1/4 MIC incubated for 3 days by MTT assay

Mycobacterium avium [25] = conditions: isolate MAV4; remark: listed apart in the source
Description: Inhibition of multidrug resistance efflux pump in Mycobacterium avium isolate MAV4 assessed as potentiation of clarithromycin -induced antibacterial activity by measuring clarithromycin MIC at 1/4 MIC incubated for 3 days by MTT assay

Mycobacterium avium [26] = conditions: 104; remark: listed apart in the source
Mycobacterium avium [27] = conditions: isolate MAV3
Mycobacterium avium [28] = conditions: isolate MAV3; remark: listed apart in the source
Mycobacterium avium [29] = conditions: isolate MAV4; remark: listed apart in the source
Mycobacterium avium [30] = conditions: 104 mc'2 4; remark: listed apart in the source
Mycobacterium avium [31] = conditions: isolate MAV3; remark: listed apart in the source
Mycobacterium avium [32] = conditions: isolate MAV2; remark: listed apart in the source
[33] = Safety index, ratio of CC50 for test compound to CC50 for thioridazine for cytotoxicity in human monocyte-derived macrophages; format: cell-based, Macrophage cell line
Mycobacterium avium [34] = conditions: isolate MAV3; remark: listed apart in the source
Mycobacterium avium [35] = conditions: isolate MAV1; remark: listed apart in the source
Description: Inhibition of multidrug resistance efflux pump in Mycobacterium avium isolate MAV1 assessed as potentiation of ofloxacin-induced antibacterial activity by measuring ofloxacin MIC at 1/4 MIC incubated for 3 days by MTT assay (Rvb = 4 ug/ml)

Mycobacterium avium [36] = experiment: Antimycobacterial activity against Mycobacterium avium isolate MAV4 assessed as reduction in bacterial viability incubated for 3 days by MTT assay; format: organism-based; conditions: 72 h
Mycobacterium avium [37] = conditions: isolate MAV1; remark: listed apart in the source
Mycobacterium avium [38] = conditions: isolate MAV1; remark: listed apart in the source
Mycobacterium avium [39] = conditions: isolate MAV3; remark: listed apart in the source
Mycobacterium avium [40] = conditions: 104 mc'2 4; remark: listed apart in the source
Mycobacterium avium [41] = conditions: isolate MAV3; remark: listed apart in the source
Mycobacterium avium [42] = conditions: isolate MAV1; remark: listed apart in the source
Mycobacterium avium [43] = conditions: isolate MAV3; remark: listed apart in the source
Mycobacterium avium [44] = conditions: 104 mc'2 4; remark: listed apart in the source
Mycobacterium avium [45] = conditions: isolate MAV4; remark: listed apart in the source
Mycobacterium avium [46] = conditions: 104; remark: listed apart in the source
Mycobacterium avium [47] = conditions: 104; remark: listed apart in the source
Mycobacterium avium [48] = conditions: 104 mc'2 3; remark: listed apart in the source
Mycobacterium avium [49] = experiment: Antimycobacterial activity against Mycobacterium avium isolate MAV2 assessed as reduction in bacterial viability incubated for 3 days by MTT assay; format: organism-based; conditions: 72 h
Mycobacterium avium [50] = conditions: isolate MAV4; remark: listed apart in the source
Mycobacterium avium [51] = conditions: 104; remark: listed apart in the source
Mycobacterium avium [52] = conditions: isolate MAV2; remark: listed apart in the source
Description: Inhibition of multidrug resistance efflux pump in Mycobacterium avium isolate MAV2 assessed as potentiation of clarithromycin -induced antibacterial activity by measuring clarithromycin MIC at 1/4 MIC incubated for 3 days by MTT assay (Rvb = >1024 ug/ml)

[53] = Cytotoxicity in human monocyte-derived macrophages assessed as reduction in cell viability incubated for 3 days by alamar blue dye based assay; set-up: species or system Macrophage cell line
Mycobacterium avium [54] = conditions: isolate MAV3; remark: listed apart in the source
[55] = system: Mycobacterium avium subsp. avium ATCC 25291; remark: listed apart in the source
Mycobacterium avium [56] = conditions: isolate MAV4; remark: listed apart in the source
Description: Inhibition of multidrug resistance efflux pump in Mycobacterium avium isolate MAV4 assessed as potentiation of clarithromycin -induced antibacterial activity by measuring clarithromycin MIC at 1/2 MIC incubated for 3 days by MTT assay

[57] = system: Mycobacterium avium subsp. avium ATCC 25291; remark: listed apart in the source
Description: Inhibition of multidrug resistance efflux pump in Mycobacterium avium ATCC 25291 assessed as potentiation of ethidium bromide-induced antibacterial activity by measuring ethidium bromide MIC at 1/4 MIC incubated for 3 days by MTT assay

Mycobacterium avium [58] = conditions: 104 mc'2 4; remark: listed apart in the source
Mycobacterium avium [59] = conditions: isolate MAV1; remark: listed apart in the source
Description: Inhibition of multidrug resistance efflux pump in Mycobacterium avium isolate MAV1 assessed as potentiation of ciprofloxacin-induced antibacterial activity by measuring ciprofloxacin MIC at 1/2 MIC incubated for 3 days by MTT assay (Rvb = 2 ug/ml)

[60] = system: Mycobacterium avium subsp. avium ATCC 25291; remark: listed apart in the source
Mycobacterium avium [61] = conditions: isolate MAV1; remark: listed apart in the source
Mycobacterium avium [62] = conditions: in vivo, 72 h; remark: listed apart in the source
Description: Antimycobacterial activity against Mycobacterium avium 104 mc'2 4 assessed as reduction in bacterial viability incubated for 3 days by MTT assay

Mycobacterium avium [63] = conditions: isolate MAV4; remark: listed apart in the source
Mycobacterium avium [64] = experiment: Antimycobacterial activity against Mycobacterium avium isolate MAV1 assessed as reduction in bacterial viability incubated for 3 days by MTT assay; format: organism-based; conditions: in vitro, 72 h
Mycobacterium avium [65] = conditions: isolate MAV4; remark: listed apart in the source
Mycobacterium avium [66] = conditions: 104; remark: listed apart in the source
[67] = system: Mycobacterium avium subsp. avium ATCC 25291; remark: listed apart in the source

## CCCOc1ccc(-c2cn(CCN(CC)CC)c3ccccc3c2=O)cc1
Mycobacterium avium [1]
  MIC: 128 µg/mL (≈ 338 µM)
[2]
  selectivity ratio: 4 to 6
Mycobacterium avium [3]
  MIC: 512 µg/mL (≈ 1350 µM)
Mycobacterium avium [4]
  MIC: 2 µg/mL (≈ 5.28 µM)
Mycobacterium avium [5]
  MIC: 512 µg/mL (≈ 1350 µM)
Mycobacterium avium [6]
  MIC: 256 µg/mL (≈ 676 µM)
Mycobacterium avium [7]
  MIC: 2 µg/mL (≈ 5.28 µM)
Mycobacterium avium [8]
  MIC: 2 µg/mL (≈ 5.28 µM)
Mycobacterium avium [9]
  MIC: 16 µg/mL (≈ 42.3 µM)
Mycobacterium avium [10]
  MIC: > 512 µg/mL
Mycobacterium avium [11]
  MIC: 3.12 µg/mL (≈ 8.26 µM)
Mycobacterium avium [12]
  MIC: 4 µg/mL (≈ 10.6 µM)
Mycobacterium avium [13]
  MIC: 1 µg/mL (≈ 2.64 µM)
Mycobacterium avium [14]
  MIC: 8 µg/mL (≈ 21.1 µM)
[15]
  selectivity ratio: 2 to 4
Mycobacterium avium [16]
  MIC: 0.5 µg/mL (≈ 1.32 µM)
Mycobacterium avium [17]
  MIC: < 2 µg/mL
Mycobacterium avium [18]
  MIC: 4 µg/mL (≈ 10.6 µM)
Mycobacterium avium [19]
  MIC: 16 µg/mL (≈ 42.3 µM)
Mycobacterium avium [20]
  MIC: 128 µg/mL (≈ 338 µM)
Mycobacterium avium [21]
  MIC: 256 µg/mL (≈ 676 µM)
Mycobacterium avium [22]
  MIC: 6.25 µg/mL (≈ 16.5 µM)
Mycobacterium avium [23]
  MIC: 4 µg/mL (≈ 10.6 µM)
[24]
  MIC: 8 µg/mL (≈ 21.1 µM)
Mycobacterium avium [25]
  MIC: 8 µg/mL (≈ 21.1 µM)
Mycobacterium avium [26]
  MIC: 16 µg/mL (≈ 42.3 µM)
Mycobacterium avium [27]
  MIC: 4 µg/mL (≈ 10.6 µM)
Mycobacterium avium [28]
  MIC: 12.5 µg/mL (≈ 33 µM)
Mycobacterium avium [29]
  MIC: 6.25 µg/mL (≈ 16.5 µM)
Mycobacterium avium [30]
  MIC: > 512 µg/mL
Mycobacterium avium [31]
  MIC: 32 µg/mL (≈ 84.5 µM)
Mycobacterium avium [32]
  MIC: 6.25 µg/mL (≈ 16.5 µM)
[33]
  selectivity ratio: 4 to 6
Mycobacterium avium [34]
  MIC: 8 µg/mL (≈ 21.1 µM)
Mycobacterium avium [35]
  MIC: 4 µg/mL (≈ 10.6 µM)
Mycobacterium avium [36]
  MIC: 256 µg/mL (≈ 676 µM)
Mycobacterium avium [37]
  MIC: 16 µg/mL (≈ 42.3 µM)
Mycobacterium avium [38]
  MIC: 32 µg/mL (≈ 84.5 µM)
Mycobacterium avium [39]
  MIC: 128 µg/mL (≈ 338 µM)
Mycobacterium avium [40]
  MIC: 3.12 µg/mL (≈ 8.26 µM)
Mycobacterium avium [41]
  MIC: 8 µg/mL (≈ 21.1 µM)
Mycobacterium avium [42]
  MIC: 32 µg/mL (≈ 84.5 µM)
Mycobacterium avium [43]
  MIC: 4 µg/mL (≈ 10.6 µM)
Mycobacterium avium [44]
  MIC: 128 µg/mL (≈ 338 µM)
Mycobacterium avium [45]
  MIC: 256 µg/mL (≈ 676 µM)
Mycobacterium avium [46]
  MIC: 2 µg/mL (≈ 5.28 µM)
Mycobacterium avium [47]
  MIC: 4 µg/mL (≈ 10.6 µM)
Mycobacterium avium [48]
  MIC: 2 µg/mL (≈ 5.28 µM)
Mycobacterium avium [49]
  MIC: 256 µg/mL (≈ 676 µM)
Mycobacterium avium [50]
  MIC: 16 µg/mL (≈ 42.3 µM)
Mycobacterium avium [51]
  MIC: 32 µg/mL (≈ 84.5 µM)
Mycobacterium avium [52]
  MIC: 1020 µg/mL (≈ 2710 µM)
[53]; human monocyte-derived macrophages
  CC50 at 72 h: 56.9 µM
[53]; macrophage cell line, 72 h
  MTC: 10 µM
Mycobacterium avium [54]
  MIC: 128 µg/mL (≈ 338 µM)
[55]
  MIC: 128 µg/mL (≈ 338 µM)
Mycobacterium avium [56]
  MIC: 1 µg/mL (≈ 2.64 µM)
[57]
  MIC: 25 µg/mL (≈ 66 µM)
Mycobacterium avium [58]
  MIC: 8 µg/mL (≈ 21.1 µM)
Mycobacterium avium [59]
  MIC: 2 µg/mL (≈ 5.28 µM)
[60]
  MIC: 16 µg/mL (≈ 42.3 µM)
Mycobacterium avium [61]
  MIC: 8 µg/mL (≈ 21.1 µM)
Mycobacterium avium [62]
  MIC: 256 µg/mL (≈ 676 µM)
Mycobacterium avium [63]
  MIC: 8 µg/mL (≈ 21.1 µM)
Mycobacterium avium [64]
  MIC: 128 µg/mL (≈ 338 µM)
Mycobacterium avium [65]
  MIC: 8 µg/mL (≈ 21.1 µM)
Mycobacterium avium [66]
  MIC: 1 µg/mL (≈ 2.64 µM)
[67]
  MIC: 64 µg/mL (≈ 169 µM)
